# Reference: patent US12551570B2, “Compounds comprising cleavable linker and uses thereof” (IntoCell, Inc., priority 2019, dated 2026)
# Legend:
# [1] = Plasma stability test, mouse plasma; format: in vitro ADME; conditions: 37° C., 300 μM
# Method: (§1) Compound A-2 or A-3 and MPS used as an internal standard were dissolved in DMSO to achieve a concentration of 60 mM. Then, each of human plasma (Biochemed 752PR-SC-PMG), mouse plasma (Biochemed 029-APSC-MP), rat plasma (Biochemed 031-APSC-MP), and beagle dog plasma (Biochemed 013-APSC-MP) were mixed with the solution of the compound and MPS to achieve a final concentration of 300 μM (final 0.5% DMSO). The resulting plasma mixtures were incubated at 37° C. Aliquots were taken before the reaction and after 1 day, 2 days, 4 days, and 7 days. Each aliquot was 300 μL. To complete the reaction, two-fold volume of acetonitrile was added, followed by brief vortexing and centrifugation for plasma protein precipitation. Each supernatant obtained after centrifugation was collected and analyzed by HPLC. Compounds A-2 and A-3 were detected and quantitated in the mouse and human plasma for up to 7 days (>95%). […] The results of the plasma stability studies are shown in Tables 3 and 4 and FIGS. 6 and 7.
# [2] = Plasma stability test, human plasma; format: in vitro ADME; conditions: 37° C., 300 μM
# Method: as §1
Structure (SMILES),"Remaining Substrate, %, Mouse Plasma ([1]; 0 days)","Remaining Substrate, %, Mouse Plasma ([1]; 1 day)","Remaining Substrate, %, Mouse Plasma ([1]; 2 days)","Remaining Substrate, %, Mouse Plasma ([1]; 4 days)","Remaining Substrate, %, Mouse Plasma ([1]; 7 days)","Remaining Substrate, %, Human Plasma ([2]; 0 days)","Remaining Substrate, %, Human Plasma ([2]; 1 day)","Remaining Substrate, %, Human Plasma ([2]; 2 days)","Remaining Substrate, %, Human Plasma ([2]; 4 days)","Remaining Substrate, %, Human Plasma ([2]; 7 days)"
CC(C)(C)OC(=O)N[C@@H](Cc1ccc(OS(=O)(=NCCOCCOCCOCCN=[N+]=[N-])Oc2ccccc2O[C@@H]2O[C@H](CO)[C@H](O)[C@H](O)[C@H]2O)cc1)C(=O)O (stereo partly drawn) [Compound A-2],100%,102%,100%,97%,95%,100%,100%,104%,99%,101%
C[N+]1(Cc2ccc(OS(=O)(=NCCOCCOCCOCCN=[N+]=[N-])Oc3ccccc3O[C@@H]3O[C@H](CO)[C@H](O)[C@H](O)[C@H]3O)cc2)CCCC[C@@H]1C(=O)Nc1ccccc1 (stereo partly drawn) [Compound A-3],100%,94%,90%,,92%,100%,97%,98%,,99%
